6 molecules from ChEMBL document CHEMBL4219129, “Design, synthesis and biological evaluation of spiropyrimidinetriones oxazolidinone derivatives as antibacterial agents” (2018) can be followed below.

Format in all cases: functional
The subject of test [1] is Staphylococcus aureus. Kind of test: Antibacterial activity against Staphylococcus aureus Mu50 ATCC 700699.
The subject of test [2] is Staphylococcus epidermidis. Kind of test: Antibacterial activity against linezolid-resistant Staphylococcus epidermidis 1117174.
Test [3] deals with Staphylococcus epidermidis. In words: Antibacterial activity against Staphylococcus epidermidis ATCC 12228.
Test [4] has as its system Staphylococcus aureus. Kind of test: Antibacterial activity against methicillin-resistant Staphylococcus aureus 562.
Test [5] has as its system Staphylococcus epidermidis. Kind of test: Antibacterial activity against methicillin-resistant Staphylococcus epidermidis ATCC 35984.
The test system of test [6] is Staphylococcus aureus. In words: Antibacterial activity against linezolid-resistant Staphylococcus aureus O-128.
For test [7], the system named is Staphylococcus aureus. In words: Antibacterial activity against PVL positive Staphylococcus aureus.
Test [8] concerns Staphylococcus epidermidis. In words: Antibacterial activity against linezolid-resistant Staphylococcus epidermidis 1089191.
The test system of test [9] is Staphylococcus aureus. In words: Antibacterial activity against methicillin-resistant Staphylococcus aureus DB-00026.
The test system of test [10] is Staphylococcus aureus. Kind of test: Antibacterial activity against Staphylococcus aureus FDA 209P.
For test [11], the system named is Staphylococcus aureus. Kind of test: Antibacterial activity against methicillin-resistant Staphylococcus aureus USA300 BAA-1556.
Test [12] deals with Staphylococcus aureus. In words: Antibacterial activity against […] Staphylococcus aureus ATCC 13709 SMITH.
Test [13] concerns Escherichia coli. In words: Antibacterial activity against TolC-deficient Escherichia coli.
For test [14], the system named is Escherichia coli. In words: Antibacterial activity against Escherichia coli MG1655. Conditions: K-12 substr. MG1655.
For test [15], the system named is Staphylococcus aureus. In words: Antibacterial activity against methicillin-resistant Staphylococcus aureus 1201984.
For test [16], the system named is Staphylococcus aureus. Kind of test: Antibacterial activity against Staphylococcus aureus ATCC 29213.

Converted amounts (≈) assume the structure as drawn.

Consider `O=C1NC(=O)C2(Cc3cc(-c4ccc(N5C[C@H](CNC(=O)C(F)(F)F)OC5=O)cc4F)ccc3N3CCCC32)C(=O)N1` (stereo partly specified), for which the minimal inhibitory concentration (MIC) came to 8 µg/mL (≈ 13.6 µM) against Staphylococcus aureus [1]; 32 µg/mL (≈ 54.3 µM) in [2]; 8 µg/mL (≈ 13.6 µM) in [3]; 8 µg/mL (≈ 13.6 µM) with Staphylococcus aureus [4]; 4 µg/mL (≈ 6.79 µM) in test [5]; 32 µg/mL (≈ 54.3 µM) against Staphylococcus aureus [6]. Besides, the MIC in the test on Staphylococcus aureus [7] was determined as 8 µg/mL (≈ 13.6 µM); in test [8], 32 µg/mL (≈ 54.3 µM); against Staphylococcus aureus [9], 16 µg/mL (≈ 27.1 µM); against Staphylococcus aureus [10], 16 µg/mL (≈ 27.1 µM); with Staphylococcus aureus [11], 16 µg/mL (≈ 27.1 µM); with Staphylococcus aureus [12], 32 µg/mL (≈ 54.3 µM). Besides, the minimal inhibitory concentration (MIC) is 16 µg/mL (≈ 27.1 µM) in the test on Escherichia coli [13], more than 32 µg/mL in the test with Escherichia coli [14], 8 µg/mL (≈ 13.6 µM) with Staphylococcus aureus [15] and 32 µg/mL (≈ 54.3 µM) against Staphylococcus aureus [16].
Take `COC(=O)C1(C(=O)OC)Cc2cc(-c3ccc(N4C[C@H](CO)OC4=O)cc3F)ccc2N2CCOCC21` (stereo partly specified): the minimum inhibitory concentration (MIC) with Staphylococcus aureus [1] is 16 µg/mL (≈ 31.1 µM); in test [2], more than 32 µg/mL; in test [3] it was 8 µg/mL (≈ 15.5 µM); in the test on Staphylococcus aureus [4] it was 8 µg/mL (≈ 15.5 µM); in test [5] it was 8 µg/mL (≈ 15.5 µM); against Staphylococcus aureus [6] it was more than 32 µg/mL. Further, the minimum inhibitory concentration (MIC) is 8 µg/mL (≈ 15.5 µM) in the test with Staphylococcus aureus [7]; more than 32 µg/mL in test [8]; 16 µg/mL (≈ 31.1 µM) against Staphylococcus aureus [9]; 16 µg/mL (≈ 31.1 µM) against Staphylococcus aureus [10]; 16 µg/mL (≈ 31.1 µM) in the test with Staphylococcus aureus [11]; more than 32 µg/mL against Staphylococcus aureus [12]. In addition, the MIC in the test with Escherichia coli [13] was 16 µg/mL (≈ 31.1 µM); in the test with Escherichia coli [14] it was more than 32 µg/mL; against Staphylococcus aureus [15], 8 µg/mL (≈ 15.5 µM); in the test with Staphylococcus aureus [16] it was 16 µg/mL (≈ 31.1 µM).
In the case of `CCOC(=O)NC[C@H]1CN(c2ccc(-c3ccc4c(c3)CC3(C(=O)NC(=O)NC3=O)C3CCCN43)c(F)c2)C(=O)O1` (stereo partly specified), the MIC with Staphylococcus aureus [1] was 4 µg/mL (≈ 7.07 µM); in [2] it was more than 32 µg/mL; in test [3], 4 µg/mL (≈ 7.07 µM); with Staphylococcus aureus [4], 4 µg/mL (≈ 7.07 µM); in [5], 4 µg/mL (≈ 7.07 µM); against Staphylococcus aureus [6] it was 32 µg/mL (≈ 56.6 µM). Moreover, the MIC in the test with Staphylococcus aureus [7] was 8 µg/mL (≈ 14.1 µM); in test [8], more than 32 µg/mL; in the test with Staphylococcus aureus [9] it was 8 µg/mL (≈ 14.1 µM); with Staphylococcus aureus [10] it was 8 µg/mL (≈ 14.1 µM); against Staphylococcus aureus [11] it was 8 µg/mL (≈ 14.1 µM); in the test on Staphylococcus aureus [12], more than 32 µg/mL. For the same molecule, the minimum inhibitory concentration (MIC) against Escherichia coli [13] is 8 µg/mL (≈ 14.1 µM); in the test on Escherichia coli [14], more than 32 µg/mL; with Staphylococcus aureus [15], 8 µg/mL (≈ 14.1 µM); with Staphylococcus aureus [16] it was 8 µg/mL (≈ 14.1 µM).
For the molecule `CCC(=O)NC[C@H]1CN(c2ccc(-c3ccc4c(c3)CC3(C(=O)NC(=O)NC3=O)C3COCCN43)c(F)c2)C(=O)O1` (stereo partly specified), the MIC in the test on Staphylococcus aureus [1] turned out to be 4 µg/mL (≈ 7.07 µM); in test [2], 32 µg/mL (≈ 56.6 µM); in test [3], 4 µg/mL (≈ 7.07 µM); in the test on Staphylococcus aureus [4] it was 4 µg/mL (≈ 7.07 µM); in test [5], 4 µg/mL (≈ 7.07 µM); against Staphylococcus aureus [6] it was 32 µg/mL (≈ 56.6 µM). For the same molecule, the MIC against Staphylococcus aureus [7] is 16 µg/mL (≈ 28.3 µM); in [8] it was more than 32 µg/mL; against Staphylococcus aureus [9] it was 16 µg/mL (≈ 28.3 µM); in the test with Staphylococcus aureus [10] it was 16 µg/mL (≈ 28.3 µM); in the test with Staphylococcus aureus [11], 16 µg/mL (≈ 28.3 µM); in the test on Staphylococcus aureus [12], more than 32 µg/mL. Also, the minimal inhibitory concentration (MIC) with Escherichia coli [13] was 4 µg/mL (≈ 7.07 µM); with Escherichia coli [14], more than 32 µg/mL; in the test on Staphylococcus aureus [15], 16 µg/mL (≈ 28.3 µM); in the test with Staphylococcus aureus [16] it was 8 µg/mL (≈ 14.1 µM).
In the case of `CS(=O)(=O)NC[C@H]1CN(c2ccc(-c3ccc4c(c3)CC3(C(=O)NC(=O)NC3=O)C3COCCN43)c(F)c2)C(=O)O1` (stereo partly specified), the minimal inhibitory concentration (MIC) is 16 µg/mL (≈ 27.2 µM) in the test with Staphylococcus aureus [1]; more than 32 µg/mL in [2]; 16 to 32 µg/mL (≈ 27.2 to 54.5 µM) in test [3]; 32 µg/mL (≈ 54.5 µM) with Staphylococcus aureus [4]; 16 to 32 µg/mL (≈ 27.2 to 54.5 µM) in [5]; more than 32 µg/mL in the test on Staphylococcus aureus [6]. For the same molecule, the MIC is 32 µg/mL (≈ 54.5 µM) with Staphylococcus aureus [7]; more than 32 µg/mL in test [8]; 32 µg/mL (≈ 54.5 µM) against Staphylococcus aureus [9]; 32 µg/mL (≈ 54.5 µM) against Staphylococcus aureus [10]; 32 µg/mL (≈ 54.5 µM) against Staphylococcus aureus [11]; more than 32 µg/mL against Staphylococcus aureus [12]. The minimum inhibitory concentration (MIC) with Escherichia coli [13] was 32 µg/mL (≈ 54.5 µM); against Escherichia coli [14] it was more than 32 µg/mL; with Staphylococcus aureus [15], 32 µg/mL (≈ 54.5 µM); against Staphylococcus aureus [16], 32 µg/mL (≈ 54.5 µM).
With `CS(=O)(=O)NC[C@H]1CN(c2ccc(-c3ccc4c(c3)CC3(C(=O)NC(=O)NC3=O)C3CCCN43)c(F)c2)C(=O)O1` (stereo partly specified), the minimal inhibitory concentration (MIC) in the test with Staphylococcus aureus [1] is 8 µg/mL (≈ 14 µM); in test [2] it was 32 µg/mL (≈ 56 µM); in test [3], 8 µg/mL (≈ 14 µM); in the test on Staphylococcus aureus [4] it was 8 µg/mL (≈ 14 µM); in [5], 4 µg/mL (≈ 7 µM); with Staphylococcus aureus [6], 32 µg/mL (≈ 56 µM). Also, the MIC is 8 µg/mL (≈ 14 µM) with Staphylococcus aureus [7]; more than 32 µg/mL in [8]; 16 µg/mL (≈ 28 µM) in the test with Staphylococcus aureus [9]; 16 µg/mL (≈ 28 µM) in the test on Staphylococcus aureus [10]; 16 µg/mL (≈ 28 µM) against Staphylococcus aureus [11]; more than 32 µg/mL in the test with Staphylococcus aureus [12]. Also, the MIC against Escherichia coli [13] was 16 µg/mL (≈ 28 µM); with Escherichia coli [14] it was more than 32 µg/mL; in the test on Staphylococcus aureus [15] it was 8 µg/mL (≈ 14 µM); against Staphylococcus aureus [16], 16 µg/mL (≈ 28 µM).
